Test results published in PubChem BioAssay (NCI).
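48-hour exposure; five concentrations; linearly interpolated endpoints. Abbreviation: GI50, concentration required for 50% inhibition of growth. TGI is the concentration that stops growth completely.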

Columns and labels:
Test in all cases: NCI-60 cell line screen, 48 h
NCI-H23 lung = test system: NCI-H23 lung
SN12C renal = test system: SN12C renal
LOX IMVI melanoma = test system: LOX IMVI melanoma
SK-MEL-5 melanoma = test system: SK-MEL-5 melanoma
SR leukemia = test system: SR leukemia
UACC-257 melanoma = test system: UACC-257 melanoma
OVCAR-4 ovarian = test system: OVCAR-4 ovarian
NCI-H460 lung = test system: NCI-H460 lung
SF-268 CNS = test system: SF-268 CNS
RXF 393 renal = test system: RXF 393 renal

Structure (SMILES) | GI50 (NCI-H23 lung) | TGI (NCI-H23 lung) | GI50 (SN12C renal) | TGI (SN12C renal) | GI50 (LOX IMVI melanoma) | TGI (LOX IMVI melanoma) | GI50 (SK-MEL-5 melanoma) | TGI (SK-MEL-5 melanoma) | GI50 (SR leukemia) | TGI (SR leukemia) | GI50 (UACC-257 melanoma) | TGI (UACC-257 melanoma) | GI50 (OVCAR-4 ovarian) | TGI (OVCAR-4 ovarian) | GI50 (NCI-H460 lung) | TGI (NCI-H460 lung) | GI50 (SF-268 CNS) | TGI (SF-268 CNS) | GI50 (RXF 393 renal) | TGI (RXF 393 renal)
O=C(O)c1cc[c]([Hg][S]c2ncnc3nc[nH]c23)cc1 | 15.5 µM | 34.8 µM | 17.5 µM | 38.6 µM | 0.684 µM | 17.1 µM | 14.1 µM | 36.4 µM | 1.32 µM | 7.16 µM | 10.4 µM | 22.9 µM | 10.3 µM | 28.9 µM | 13.1 µM | 28.5 µM | 5.15 µM | 19 µM | 2.95 µM | 18.8 µM
Clc1ccc([O][In]([O]c2ccc(Cl)cn2)[O]c2ccc(Cl)cn2)nc1 | > 100 µM | > 100 µM | > 100 µM | > 100 µM | > 100 µM | > 100 µM | 15.8 µM | 76.8 µM | > 100 µM | > 100 µM | > 100 µM | > 100 µM | > 100 µM | > 100 µM | > 100 µM | > 100 µM | > 100 µM | > 100 µM | > 100 µM | > 100 µM
Cc1cccc(NC(=O)c2sc3nc4c(cc3c2N)CCCC4)c1C | 0.519 µM | > 100 µM | 0.61 µM | > 100 µM | 0.598 µM | > 100 µM | 0.399 µM | > 100 µM | 0.276 µM | > 100 µM | > 100 µM | > 100 µM | 1.48 µM | > 100 µM | 0.369 µM | > 100 µM | 1.03 µM | > 100 µM | 0.233 µM | 0.733 µM
CC1(C)C(=O)C(O)=CC2C1=CCC1C2(C)C(=O)CC2(C)C(C(C)(O)C(=O)CC(O)C(C)(C)O)C(O)CC12C (stereo not given) |  | 67.1 µM |  | > 90.4 µM |  | 6.95 µM |  | 8.53 µM |  | 25.3 µM |  | 30.2 µM |  | 11.8 µM |  | 56.5 µM |  | 9.76 µM |  | 5.54 µM
CCOC(=O)c1c(NC(=O)c2ccc(C(C)C)cc2)sc2c(CN(C)C)c(O)ccc12 | 3.22 µM | 13.3 µM | 4.53 µM | 17.9 µM | 1.76 µM | 3.23 µM | 1.73 µM | 3.11 µM | 2.09 µM | 6.44 µM | 2.12 µM | 4.61 µM | 3.7 µM | 13.3 µM | 1.88 µM | 3.6 µM | 1.98 µM | 4.06 µM | 1.74 µM | 3.39 µM
CC(C)(C)OC(=O)NCC(C#N)CNC(=O)OC(C)(C)C |  | > 100 µM |  | > 100 µM |  | > 100 µM |  | > 100 µM |  | > 100 µM |  | > 100 µM |  | > 100 µM |  | > 100 µM |  | > 100 µM |  | > 100 µM
CC1=C(C(=O)NC2CCCCC2)CC(C(=O)NC2CCCCC2)=C(C)N1 |  | > 100 µM |  | > 100 µM |  | > 100 µM |  | > 100 µM |  | > 100 µM |  | > 100 µM |  | > 100 µM |  | > 100 µM |  | > 100 µM |  | > 100 µM
CC1(C)N=C(N)N=C(N)N1c1ccc(CCc2ccccc2)c(Cl)c1 | 0.0791 µM | 15 µM | 0.0883 µM | 13 µM | 0.0426 µM | 13.5 µM | 0.124 µM | 1.33 µM | 0.0562 µM | 18.7 µM | 0.392 µM | 13.1 µM | 0.52 µM | 13.1 µM | 0.042 µM | 11.6 µM | 0.0552 µM | 14.3 µM | 0.829 µM | 17.6 µM
CC1(C)CCC(C)(C)c2cc(C(=O)Nc3ccc(C(=O)O)cc3)ccc21 |  | 37.8 µM |  | > 100 µM |  | > 58.2 µM |  | > 56 µM |  | > 81.9 µM |  | > 67.7 µM |  | 67.1 µM |  | 46.9 µM |  | > 87.4 µM |  | > 42 µM
COC(=O)c1ccc2c(c1)C(NC(C)=O)CCc1cc(OC)c(OC)c(OC)c1-2 (stereo not given) |  | 1.35 µM |  | > 96.1 µM |  | > 96.5 µM |  | 0.216 µM |  | 2.68 µM |  | > 100 µM |  | > 100 µM |  | 3.23 µM |  | 77.9 µM |  | 6.65 µM
Cc1ccc(C(=O)Nc2ccc(CN3CCN(C)CC3)c(C(F)(F)F)c2)cc1C#Cc1cnc(N)c2ccc(F)cc12 | 0.584 µM | 2.24 µM | 0.0793 µM | 0.73 µM | 0.216 µM | 0.557 µM | 0.805 µM | 2.18 µM | 0.262 µM | 1.3 µM | 0.594 µM | 1.95 µM | 0.329 µM | 2.32 µM | 0.232 µM | 0.647 µM | 0.259 µM | 1.88 µM | 0.218 µM | 0.579 µM
C#C[C@]1(O)CC[C@H]2[C@@H]3CC=C4c5nc(Nc6ccccn6)sc5CC[C@]4(C)[C@H]3CC[C@@]21C | 1.67 µM | 6.64 µM | 1.75 µM | 3.62 µM | 1.29 µM | 2.59 µM | 1.6 µM | 2.98 µM | 0.542 µM | 3.24 µM | 0.778 µM | 2.55 µM | 2.94 µM | 9.42 µM | 1.21 µM | 2.83 µM | 1.85 µM | 6.87 µM | 0.218 µM | 0.468 µM
COc1ccc(C2SC(N)=Nc3c2c(C)nn3C(=O)c2ccc(Cl)cc2)cc1OC (stereo not given) |  | > 10 µM |  | > 10 µM |  | > 10 µM |  | > 10 µM |  | > 10 µM |  | > 10 µM |  | > 10 µM |  | > 10 µM |  | > 10 µM |  | > 10 µM
COC1/C=C/OC2(C)Oc3c(C)c(O)c4c(c3C2=O)C(=O)C=C(NC(=O)/C(C)=C\C=C\C(C)C(OC=O)C(C)C(O)C(C)C(OC(C)=O)C1C)C4=O (stereo not given) |  | 30.6 µM |  | 29.5 µM |  | 14.1 µM |  | 31.6 µM |  | 8.08 µM |  | 26.5 µM |  | 19.1 µM |  | 42 µM |  | 37.1 µM |  | 19 µM
